Assay [1] deals with T1, Human leukocyte elastase (HLE) (Homo sapiens, UniProt P08246).
T1 construct: gift of R. Senior, Washington University
T1 sequence (P08246 30-267): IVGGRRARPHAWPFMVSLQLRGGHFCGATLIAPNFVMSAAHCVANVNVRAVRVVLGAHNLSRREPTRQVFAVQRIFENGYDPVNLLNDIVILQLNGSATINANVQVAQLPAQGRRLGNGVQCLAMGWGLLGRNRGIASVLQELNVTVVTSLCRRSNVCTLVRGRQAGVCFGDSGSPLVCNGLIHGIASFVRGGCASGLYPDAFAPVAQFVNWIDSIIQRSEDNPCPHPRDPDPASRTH
The experiment in a line: Human leukocyte elastase assay. The class given is biochemical. On the procedure:
Human leukocyte elastase (HLE) (gift of R. Senior, Washington University) was dissolved in saline at 1 mg/ml and further diluted 1/20 in assay buffer (0.2 M Tris, pH 8.0) before use. 10 μl of test compound in DMSO (or DMSO alone), 100 μl of assay buffer and 50 μl of enzyme were added to 96 well plates, mixed and pre-incubated for 30 minutes at ambient temperature. Reaction was initiated by addition of 40 μl of 2.5 mM methoxysuccinyl-Ala-Ala-Pro-Val-p-nitroanilide (Sigma; 25 mM in DMSO diluted 1/10 in assay buffer before use). The increase in absorbance at 405 nm was monitored for 10 minutes with a Biotek EL340 plate reader.

Assay [2] concerns HCMV engineered virus RC256. The experiment in a line: microbe, parasite or virus in culture. In kind it is cell-based, human cytomegalovirus. Conditions: Human betaherpesvirus 5, Fibroblast, read-out: Antiviral Activity RC256, first value (EC50).
The target in assay [3] is HCMV protease (assemblin) (Human cytomegalovirus, UniProt P16753). The assay can be described thus: Enzymatic assay for HCMV protease (assemblin) inhibitors. In kind it is biochemical.
Where [4] appears, read: @ 1 (concentration unit not given).
The mark [5] stands for this setting: @ 10 (concentration unit not given).
Setting [6] is: @ 100 (concentration unit not given).

Structures are written as SMILES. pEC50, pIC50: −log10 of the molar value.

HCMV protease (assemblin), sequence (P16753 1-256): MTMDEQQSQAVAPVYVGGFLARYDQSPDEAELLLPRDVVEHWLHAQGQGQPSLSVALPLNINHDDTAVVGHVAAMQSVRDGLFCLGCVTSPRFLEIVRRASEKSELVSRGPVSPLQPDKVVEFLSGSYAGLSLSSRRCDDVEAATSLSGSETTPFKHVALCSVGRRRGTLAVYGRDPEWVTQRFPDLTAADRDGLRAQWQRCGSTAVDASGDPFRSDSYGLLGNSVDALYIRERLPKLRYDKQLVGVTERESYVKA

As a reminder, the pEC50 is the EC50 on a negative log10 scale, so that one unit is a factor of ten. For the compound `COc1ccc(C[C@H](Nc2nc3ccc(CNC(=O)OC(C)(C)C)c(C)c3c(=O)o2)C(=O)N(C)c2ccc(Cl)cc2)cc1` [Example 7r, 1,1-Dimethylethyl[[2-[[2-[(4-chlorophenyl)methylamino]-1S-[(4-methoxyphenyl)methyl]-2-oxoethyl]amino]-5-methyl-4-oxo-4H-3,1-benzoxazin-6-yl]methyl]carbamate], in assay [1] (setting [4]), the “HLE, % @ concentration” value came out at 44% @ 1. For the same compound, the pEC50 in assay [2] is 5.15. The “Assemblin Protease, % @ concentration” value in assay [3] (setting [4]) came to 52% @ 1.

Usually pIC50 stands for the IC50 on a negative log10 scale, so that one unit is a factor of ten. High values mean a small IC50, low ones a large IC50. Consider `Cc1c(CNC(=O)Oc2ccccc2)ccc2nc(N[C@@H](Cc3ccccc3)C(=O)N(C)Cc3ccccc3)oc(=O)c12` [Example 9ee, Phenyl[[5-methyl-2-[[2-[methyl(phenylmethyl)amino]-2-oxo-1S-(phenylmethyl)ethyl]amino]-4-oxo-4H-3,1-benzoxazin-6-yl]methyl]carbamate], for which, in assay [1] (setting [5]), the “HLE, % @ concentration” value is on record as 47% @ 10. Further, in assay [2], the pEC50 is 4.82. In addition, the pIC50 in assay [3] is 6.22.

For the compound `COc1ccc(C[C@H](Nc2nc3ccc(CNC(=O)Oc4ccccc4)c(C)c3c(=O)o2)C(=O)N(C)Cc2ccccc2)cc1` [Example 9j, Phenyl[[2-[[1S-[(4-methoxyphenyl)methyl]-2-[methyl(phenylmethyl)amino]-2-oxcethyl]amino]-5-methyl-4-oxo-4H-3,1-benzoxazin-6-yl]methyl]carbamate], the negative logarithm of the EC50 (pEC50) in assay [2] was 4.70. In addition, the pIC50 in assay [3] was 6.40.

Regarding `CCN(Cc1ccccc1)C(=O)[C@H](Cc1ccc(OC)cc1)Nc1nc2ccc(CNC(=O)Oc3ccccc3)c(C)c2c(=O)o1` [Example 9q, Phenyl[[2-[[2-[ethyl(phenylmethyl)amino-1S-,(4-methoxyphenyl)methyl]-2-oxoethyl]amino]-5-methyl-4-oxo-3,1-benzoxazin-6-yl]methyl]carbamate], in assay [1] (@ 5 (concentration unit not given)), the “HLE, % @ concentration” value worked out at 48% @ 5. In addition, the pEC50 in assay [2] is 4.74. Moreover, the negative logarithm of the IC50 (pIC50) in assay [3] is 6.00.

Take `COc1ccc(C[C@H](Nc2nc3ccc(NC(=O)OCC(C)C)c(C)c3c(=O)o2)C(=O)N(C)Cc2ccccc2)cc1` [Example 11s, 2-Methylpropyl[2-[[1S-[(4-methoxyphenyl)methyl]-2-[methyl(phenylmethyl)amino]-2-oxoethyl]amino]-5-methyl-4H-3,1-benzoxazin-6-yl]carbamate]: the negative logarithm of the EC50 (pEC50) in assay [2] is 4.77. Further, the “Assemblin Protease, % @ concentration” value in assay [3] (setting [5]) is recorded as 58% @ 10.

Consider `COc1ccc(C[C@H](Nc2nc3ccc(NC(=O)OCc4ccccc4)c(C)c3c(=O)o2)C(=O)N(C)Cc2ccccc2)cc1` [Example 11t, Phenylmethyl[2-[[1S-[(4-methoxyphenyl)methyl]-2-[methyl(phenylmethyl)amino]-2-oxoethyl]amino]-5-methyl-4H-3,1-benzoxazin-6-yl]carbamate], for which the negative-log EC50 (pEC50) in assay [2] was 4.46. In assay [3] (setting [5]), the “Assemblin Protease, % @ concentration” value is listed as 38% @ 10.

Take `Cc1ccc(S(=O)(=O)NCc2cc(Br)c3nc(N[C@@H](Cc4ccccc4)C(=O)N(C)Cc4ccccc4)oc(=O)c3c2C)cc1` [Example 13d, αS-[[8-Bromo-5-methyl-6-[[[(4-methylphenyl)sulfonyl]amino]methyl]-4-oxo-4H-3,1-benzoxazin-2-yl]amino]-N-methyl-N-(phenylmethyl)benzenepropanamide]: the “HLE, % @ concentration” value in assay [1] (setting [5]) came out at 87% @ 10. In assay [2], the pEC50 was 5.10.

In the case of `Cc1c(CNS(=O)(=O)c2ccccc2)ccc2nc(N[C@@H](Cc3ccccc3)C(=O)N(C)Cc3ccccc3)oc(=O)c12` [Example 13e, N-Methyl-αS-[[5-methyl-4-oxo-6-[[(phenylsulfonyl)amino]methyl]-4H-3,1-benzoxazin-2-yl]amino]-N-(phenylmethyl)benzenepropanamide], the pEC50 in assay [2] was 4.85. Also, in assay [3] (setting [6]), the “Assemblin Protease, % @ concentration” value turned out to be 11% @ 100.

For the compound `CCOC(=O)NCc1cc(Br)c2nc(N[C@@H](Cc3ccccc3)C(=O)N(C)Cc3ccccc3)oc(=O)c2c1C` [Example 15b, Ethyl[[8-bromo-5-methyl-2-[[2-[methyl(phenylmethyl)amino]-2-oxo-1S-(phenylmethyl)ethyl]amino]-4-oxo-4H-3,1-benzoxazin-6-yl]methyl]carbamate], the pEC50 in assay [2] was 4.80. Besides, the “Assemblin Protease, % @ concentration” value in assay [3] (setting [5]) stood at 39% @ 10.

Regarding `Cc1c(CNC(=O)CN2CCOCC2)cc(Br)c2nc(N[C@@H](Cc3ccccc3)C(=O)N(C)Cc3ccccc3)oc(=O)c12` [Example 15e, N-[[8-Bromo-5-methyl-2-[[2-[methyl(phenylmethyl)amino]-2-oxo-1S-(phenylmethyl)ethyl]amino]-4-oxo-4H-3,1-benzoxazin-6-yl]methyl]morpholine-4-acetamide], the “HLE, % @ concentration” value in assay [1] (setting [6]) stood at 78% @ 100. For the same compound, the negative-log EC50 (pEC50) in assay [2] is 4.80.

Regarding `CCN(Cc1ccccc1)C(=O)[C@H](Cc1ccccc1)Nc1nc2c(Br)cc(CNC(=O)CN3CCOCC3)c(C)c2c(=O)o1` [Example 15g, N-[[8-Bromo-2-[[2-[ethyl(phenylmethyl)amino]-2-oxo-1S-(phenylmethyl)ethyl]amino]-5-methyl-4-oxo-4H-3,1-benzoxazin-6-yl]methyl]morpholine-4-acetamide], in assay [1] (setting [4]), the “HLE, % @ concentration” value was found to be 22% @ 1. The negative logarithm of the EC50 (pEC50) in assay [2] was 4.80.

As for `Cc1c(N(C)C)ccc2nc(N[C@@H](Cc3ccccc3)C(=O)N(C)Cc3ccccc3)oc(=O)c12` [Example 16, αS-[[6-(Dimethylamino)-5-methyl-4-oxo-4H-3,1-benzoxazin-2-yl]amino]-N-methyl-N-(phenylmethyl) benzenepropanamide], the “HLE, % @ concentration” value in assay [1] (setting [5]) is 59% @ 10. Moreover, in assay [2], the pEC50 is 4.77.

For the compound `CCN(C(=O)[C@H](Cc1ccc(OC)cc1)Nc1nc2ccc(N(C)C)c(C)c2c(=O)o1)c1ccccc1` [Example 16b, αS-[[6-(Dimethylamino)-5-methyl-4-oxo-4H-3,1-benzoxazin-2-yl]amino]-N-ethyl-4-methoxy-N-phenylbenzenepropanamide], the “HLE, % @ concentration” value in assay [1] (setting [4]) worked out at 49% @ 1. Moreover, the pEC50 in assay [2] is 4.70.

As to `COc1ccc(C[C@H](Nc2nc3ccc(N(C)C)c(C)c3c(=O)o2)C(=O)N(C)c2ccc(Cl)cc2)cc1` [Example 16c, N-(4-Chlorophenyl)-αS-[[6-(dimethylamino)-5-methyl-4-oxo-4H-3,1-benzoxazin-2-yl]amino]-4-methoxy-N-methylbenzenepropanamide], the “HLE, % @ concentration” value in assay [1] (setting [5]) is 18% @ 10. For the same compound, the pEC50 in assay [2] was 4.74.

With `Cc1c(NCc2ccccc2)ccc2nc(N[C@@H](Cc3ccccc3)C(=O)N(C)Cc3ccccc3)oc(=O)c12` [Example 17d, N-Methyl-αS-[[5-methyl-4-oxo-6-[(phenylmethyl)amino]-3,1-benzoxazin-2-yl]amino]-N-(phenylmethyl)benzenepropanamide], the “HLE, % @ concentration” value in assay [1] (setting [5]) was 48% @ 10. The pEC50 in assay [2] is 4.82.

Regarding `COc1ccc(C[C@H](Nc2nc3ccc(CNC(=O)OCc4ccncc4)c(C)c3c(=O)o2)C(=O)N(C)Cc2ccccc2)cc1` [Example 18d, (4-Pyridinyl)methyl[[2-[[1S-[(4-methoxyphenyl)methyl]-2-[methyl(phenylmethyl)amino]-2-oxoethyl]amino]-5-methyl-4-oxo-3,1-benzoxazin-6-yl]methyl]carbamate], the “HLE, % @ concentration” value in assay [1] (setting [4]) turned out to be 55% @ 1. In addition, the negative-log EC50 (pEC50) in assay [2] was 4.92.

The record behind these values is patent US6683077B2, “2-Amino-benzoxazinones for the treatment of viral infections” (G.D. Searle & Co., priority 1996, dated 2004).
